Measured values: patent US12121510B2 (Cedars-Sinai Medical Center, priority 2016, dated 2024)
Where two headings read alike, the source gives them in different places.

Assays:
C4-2B = test: Cancer cell growth IC50 (crystal violet); type: cell-based
Text: (§1) Exemplary Embodiments are generally performed as follows, unless otherwise noted. Simvastatin is purchased from Ark Pharm, Inc. (Arlington Heights, IL). Cisplatin (CIS) is purchased from MedKoo Biosciences, Inc. (Chapel Hill, NC). Dihydroartemisinin is purchased from TCI America (Portland, OR). All other chemicals and reagents are purchased from standard sources such as Sigma-Aldrich and/or VWR and are of highest quality available. Puromycin dihydrochloride was purchased from Alfa Aesar (Tewksbury, MA). Deionized water ([…]) used for making solutions is obtained from Milli-Q Direct Ultrapure Water System from Millipore (Billerica, MA, USA). All intermediates are characterized by 1H NMR and mass analysis and the purity of compounds are analyzed by HPLC. 1H NMR data are collected on Bruker 400 MHz spectrometers using standard parameters; chemical shifts are reported in ppm (δ) in reference to residual non-deuterated solvent. ESI mass spectroscopy analysis is performed using a Thermo Fisher LTQ Orbitrap Elite system. IC50 is the half maximal inhibitory concentration and determined is determined by crystal violet assay unless otherwise noted.
(§2) The crystal violet assay is performed as follows, unless otherwise noted. Cell lines are supplemented with RPMI 1640 medium, 10% fetal bovine serum, 1% PenStrep, and placed in a humidified atmosphere containing 5% CO2 at 37° C. 5,000 cells/well renal cancer cells and 10,000 cells/well lymphoma cells are seeded in 96 well plates in 100 microliter medium/per well for 24 h. […] Renal cancer cells are fixed with 3.7% paraformaldehyde for 15 minutes and are stained with Crystal violet solution (0.5% in 25% methanol) for 30 minutes. After rinsing with water cell layers are dried and decolorized with Sorenson citrate with shaking for 20 minutes. Light absorption of the extracted supernatant is read at 595 nm. Lymphoma cell growth was evaluated using MTT and cells are incubated for 4 hours. 100 microliters of isopropanol is added, and the extracted supernatant fraction is read at absorption maximum of 595 nm.
(§3) Standard cell culture conditions typically are RPMI 1640 medium, 10% fetal bovine serum, 1% PenStrep, and are performed in a humidified atmosphere containing 5% CO2 at 37° C. Generally, 5,000 cells/well-10,000 cells/well are seeded in 96 well plates in 100 microliter medium/per well for 24 h, or as described in Example 16, unless otherwise noted. Certain cells require specialized media, growth factors, antibiotics, or culture condition adjustments, as will be apparent to a person of ordinary skill in the art.

Namalwa = test: Lymphoma cell growth IC50 (MTT); type: cell-based, human
Text: as §1, §2, §3
as §2, with “Cell” for “The crystal violet assay is performed as follows, unless otherwise noted. Cell”, “cultured as follows. […]” for “supplemented with RPMI 1640 medium, 10% fetal bovine serum, 1% PenStrep, and placed in a humidified atmosphere containing 5% CO2 at 37° C.”, “is” for “was”

Caki-1 = test: Renal cancer cell growth IC50 (crystal violet); type: cell-based, human; conditions: Caki-1, read-out: IC50
Text: as §1, §2, §3
as §2, with “Cell” for “The crystal violet assay is performed as follows, unless otherwise noted. Cell”, “cultured as follows. […]” for “supplemented with RPMI 1640 medium, 10% fetal bovine serum, 1% PenStrep, and placed in a humidified atmosphere containing 5% CO2 at 37° C.”, “is” for “was”

CTC 752-S-1 = test: Circulating tumor cell growth IC50 / sensitization; type: cell-based, human
Text: as §1, §3
Pancreatic cancer cells are cultured for 72 hours in vitro and exposed to the conventional chemotherapeutic drugs Gemcitabine (GEM) and Paclitaxel (PAC), known to inhibit pancreatic cancer growth in patients. GEM (or PAC) alone are compared to a combination with SIM, or a combination with DZ-SIM. […] Representative results are illustrated in the graphs in FIG. 3.
Cells are cultured according to their standard culturing conditions, and IC50s are determined as described herein-above.
Representative results of the determined IC50s are shown in the table below for the indicated cancer cells cultured in vitro, including CTCs (C752-S-1), B-Cell Lymphoma (Namalwa), prostate cancer cells (C4-2B), and renal cancer cells (Caki-1). The cells are cultured according to their standard culturing conditions, and IC50s are determined as described herein-above.

22Rv1 tumors = test: Prostate tumor xenograft growth; type: in vivo, mice; conditions: IP twice per week, 37 days; SIM 1.1 mg/kg, DZ-SIM 5.5 mg/kg, DT 8 mg/kg
Procedure: A human prostate tumor xenograft model, 22Rv1 in immune compromised mice, is employed as follows. 1×10^6 freshly harvested cells of a cultured human prostate carcinoma cell line, 22Rv1, are inoculated s.q. in mice. Mice bearing 22Rv1 tumors (10 tumors/group) are randomized into 7 groups on day-1, and administered drugs by IP (intraperitoneally) at the next day (day-2), and subsequently twice per week, using the following drugs and dosages: a control/vehicle (V, i.e. no drug), DZ (5 μM or 3.9 mg/kg, calculated based on the body weight of mice which averaged 20 grams), SIM (5 μM or 1.1 mg/kg), DZ-SIM (5 μM or 5.5 mg/kg), docetaxel (DT, 8 mg/kg), SIM+DT (drug doses as indicated), and DZ-SIM+DT (drug doses as indicated). Administration is continued for a total of 37 days, and tumor volumes are measured at the indicated times (see FIG. 4). […] Thus therapeutically resistant prostate tumors can be rendered sensitive by DZ-SIM but not SIM.

[1] = Homo sapiens, Example 23, read-out: IC50
[2] = Homo sapiens, Example 23, CTC 752-S-1

Structure (SMILES)	IC50 (C4-2B; Example 22)	IC50 (C4-2B; Example 23)	IC50 (Namalwa; [1])	IC50 (Caki-1; Homo sapiens, Example 23)	IC50 (CTC 752-S-1; [2])	also measured
C[C@@H]1CC[C@H]2[C@@H](C)C(=O)O[C@@H]3O[C@@]4(C)CC[C@@H]1[C@]32OO4 [ART, Artemisinin]	657 nM					IC50 (Namalwa; Homo sapiens, Example 22, read-out: IC50): > 64000 nM; IC50 (Caki-1; Homo sapiens, Example 22): > 64000 nM; IC50 (CTC 752-S-1; Homo sapiens, Example 22, CTC 752-S-1, 3D cultured tumor spheroids): > 64000 nM
CC(=O)O[C@@]12CO[C@@H]1C[C@H](O)[C@@]1(C)C(=O)[C@H](O)C3=C(C)[C@@H](OC(=O)[C@H](O)[C@@H](NC(=O)OC(C)(C)C)c4ccccc4)C[C@@](O)([C@@H](OC(=O)c4ccccc4)[C@H]21)C3(C)C [DT, Docetaxel]						Growth of 22Rv1 tumors in vivo (tumor volume) (22Rv1 tumors): ineffective
CC1CCC2C(C)C(OC(=O)CCCCCN3C(=CC=C4CCCC(C=CC5=[N+](CCCCS(=O)(=O)[O-])c6ccccc6C5(C)C)=C4Cl)C(C)(C)c4ccccc43)OC3OC4(C)CCC1C32OO4 (centres unmarked) [DZ-ART ester]	291 nM					IC50 (Namalwa; Example 22, read-out: IC50): 1300 nM; IC50 (Caki-1; Example 22): 703 nM; IC50 (CTC 752-S-1; Example 22, CTC 752-S-1, 3D cultured tumor spheroids): 1640 nM
COc1cccc2c1C(=O)c1c(O)c3c(c(O)c1C2=O)C[C@@](O)(C(=O)CO)C[C@@H]3O[C@H]1C[C@H](NC(=O)CCCCCN2/C(=C/C=C3\CCCC(/C=C/C4=[N+](CCCCS(=O)(=O)[O-])c5ccccc5C4(C)C)=C3Cl)C(C)(C)c3ccccc32)[C@@H](O)[C@H](C)O1 [DZ-Doxorubicin]		206 nM	6230 nM	> 64000 nM	3410 nM	
COc1ccc(C[C@H](NC(=O)CCCCCN2/C(=C/C=C3\CCCC(/C=C/C4=[N+](CCCCS(=O)(=O)[O-])c5ccccc5C4(C)C)=C3Cl)C(C)(C)c3ccccc32)C(=O)NC2C(CO)OC(n3cnc4c(N(C)C)ncnc43)C2O)cc1 (some centres unmarked) [DZ-Puromycin]		1320 nM	22400 nM	> 64000 nM	31400 nM	
